Data from ChEMBL document CHEMBL4715724, “Novel 5-substituted-2-anilinoquinolines with 3-(morpholino or 4-methylpiperazin-1-yl)propoxy moiety as broad spectrum antiproliferative agents: Synthesis, cell based assays and kinase screening” (Bioorg Med Chem Lett, 2016).

Experiments:
[1] = system: Panel renal (Carcinoma cell lines); assay: cells; type: functional; conditions: Homo sapiens, time 48 hrs
Description: Growth inhibition of human Panel renal (Carcinoma cell lines) incubated for 48 hrs by sulforhodamine B assay

HCT-116 = assay: cells; type: functional; conditions: Homo sapiens, time 48 hrs
Description: Growth inhibition of human HCT-116 cells incubated for 48 hrs by sulforhodamine B assay

SK-MEL-28 [2] = assay: cells; type: functional; conditions: Homo sapiens, time 48 hrs
Description: Growth inhibition of human SK-MEL-28 cells incubated for 48 hrs by sulforhodamine B assay

SR = assay: cells; type: functional; conditions: Homo sapiens, time 48 hrs
Description: Growth inhibition of human SR cells incubated for 48 hrs by sulforhodamine B assay

MDA-MB-231 = assay: cells; type: functional; conditions: Homo sapiens, time 48 hrs
Description: Growth inhibition of human MDA-MB-231/ATCC cells incubated for 48 hrs by sulforhodamine B assay

HOP-62 = assay: cells; type: functional; conditions: Homo sapiens, time 48 hrs
Description: Growth inhibition of human HOP-62 cells incubated for 48 hrs by sulforhodamine B assay

HCT-15 = assay: cells; type: functional; conditions: Homo sapiens, time 48 hrs
Description: Growth inhibition of human HCT-15 cells incubated for 48 hrs by sulforhodamine B assay

RXF 393 = assay: cells; type: functional; conditions: Homo sapiens, time 48 hrs
Description: Growth inhibition of human RXF 393 cells incubated for 48 hrs by sulforhodamine B assay

HT-29 = assay: cells; type: functional; conditions: Homo sapiens, time 48 hrs
Description: Growth inhibition of human HT-29 cells incubated for 48 hrs by sulforhodamine B assay

Hs-578T = assay: cells; type: functional; conditions: Homo sapiens, time 48 hrs
Description: Growth inhibition of human Hs-578T cells incubated for 48 hrs by sulforhodamine B assay

MDA-MB-468 = assay: cells; type: functional; conditions: Homo sapiens, time 48 hrs
Description: Growth inhibition of human MDA-MB-468 cells incubated for 48 hrs by sulforhodamine B assay

PC-3 = assay: cells; type: functional; conditions: Homo sapiens, time 48 hrs
Description: Growth inhibition of human PC-3 cells incubated for 48 hrs by sulforhodamine B assay

[3] = system: Panel breast (Carcinoma cell lines); assay: cells; type: functional; conditions: Homo sapiens, time 48 hrs
Description: Growth inhibition of human Panel breast (Carcinoma cell lines) incubated for 48 hrs by sulforhodamine B assay

CCRF-CEM = assay: cells; type: functional; conditions: Homo sapiens, time 48 hrs
Description: Growth inhibition of human CCRF-CEM cells incubated for 48 hrs by sulforhodamine B assay

HOP-92 = assay: cells; type: functional; conditions: Homo sapiens, time 48 hrs
Description: Growth inhibition of human HOP-92 cells incubated for 48 hrs by sulforhodamine B assay

MCF7 = assay: cells; type: functional; conditions: Homo sapiens, time 48 hrs
Description: Growth inhibition of human MCF7 cells incubated for 48 hrs by sulforhodamine B assay

NCI-H23 = assay: cells; type: functional; conditions: Homo sapiens, time 48 hrs
Description: Growth inhibition of human NCI-H23 cells incubated for 48 hrs by sulforhodamine B assay

IGROV-1 = assay: cells; type: functional; conditions: Homo sapiens, time 48 hrs
Description: Growth inhibition of human IGROV-1 cells incubated for 48 hrs by sulforhodamine B assay

SNB-75 = assay: cells; type: functional; conditions: Homo sapiens, time 48 hrs
Description: Growth inhibition of human SNB-75 cells incubated for 48 hrs by sulforhodamine B assay

LOX IMVI = assay: cells; type: functional; conditions: Homo sapiens, time 48 hrs
Description: Growth inhibition of human LOX IMVI cells incubated for 48 hrs by sulforhodamine B assay

A498 = assay: cells; type: functional; conditions: Homo sapiens, time 48 hrs
Description: Growth inhibition of human A498 cells incubated for 48 hrs by sulforhodamine B assay

OVCAR-4 = assay: cells; type: functional; conditions: Homo sapiens, time 48 hrs
Description: Growth inhibition of human OVCAR-4 cells incubated for 48 hrs by sulforhodamine B assay

UACC-62 = assay: cells; type: functional; conditions: Homo sapiens, time 48 hrs
Description: Growth inhibition of human UACC-62 cells incubated for 48 hrs by sulforhodamine B assay

SF-295 = assay: cells; type: functional; conditions: Homo sapiens, time 48 hrs
Description: Growth inhibition of human SF-295 cells incubated for 48 hrs by sulforhodamine B assay

OVCAR-8 = assay: cells; type: functional; conditions: Homo sapiens, time 48 hrs
Description: Growth inhibition of human OVCAR-8 cells incubated for 48 hrs by sulforhodamine B assay

U-251 = assay: cells; type: functional; conditions: Homo sapiens, time 48 hrs
Description: Growth inhibition of human U-251 cells incubated for 48 hrs by sulforhodamine B assay

[4] = system: Panel CNS (Carcinoma cell lines); assay: cells; type: functional; conditions: Homo sapiens, time 48 hrs
Description: Growth inhibition of human Panel CNS (Carcinoma cell lines) incubated for 48 hrs by sulforhodamine B assay

786-0 = assay: Growth inhibition of human 786-0 cells assessed as growth percentage at 10 uM measured after 48 hrs by sulforhodamine B assay relative to control; type: functional; conditions: read-out: Activity
[5] = system: Panel colon (Carcinoma cell lines); assay: cells; type: functional; conditions: Homo sapiens, time 48 hrs
Description: Growth inhibition of human Panel colon (Carcinoma cell lines) incubated for 48 hrs by sulforhodamine B assay

[6] = system: Panel ovarian (Carcinoma cell lines); assay: cells; type: functional; conditions: Homo sapiens, time 48 hrs
Description: Growth inhibition of human Panel ovarian (Carcinoma cell lines) incubated for 48 hrs by sulforhodamine B assay

K562 = assay: cells; type: functional; conditions: Homo sapiens, time 48 hrs
Description: Growth inhibition of human K562 cells incubated for 48 hrs by sulforhodamine B assay

TK-10 = assay: cells; type: functional; conditions: Homo sapiens, time 48 hrs
Description: Growth inhibition of human TK-10 cells incubated for 48 hrs by sulforhodamine B assay

[7] = system: Panel NCI-60 (60 carcinoma cell lines); assay: cells; type: functional; conditions: Homo sapiens, time 48 hrs
Description: Growth inhibition of human Panel NCI-60 (60 carcinoma cell lines) incubated for 48 hrs by sulforhodamine B assay

UO-31 = assay: cells; type: functional; conditions: Homo sapiens, time 48 hrs
Description: Growth inhibition of human UO-31 cells incubated for 48 hrs by sulforhodamine B assay

[8] = system: Panel prostate (Carcinoma cell lines); assay: cells; type: functional; conditions: Homo sapiens, time 48 hrs
Description: Growth inhibition of human Panel prostate (Carcinoma cell lines) incubated for 48 hrs by sulforhodamine B assay

NCI-H322M = assay: cells; type: functional; conditions: Homo sapiens, time 48 hrs
Description: Growth inhibition of human NCI-H322M cells incubated for 48 hrs by sulforhodamine B assay

[9] = system: Panel leukemia (Carcinoma cell lines); assay: cells; type: functional; conditions: Homo sapiens, time 48 hrs
Description: Growth inhibition of human Panel leukemia (Carcinoma cell lines) incubated for 48 hrs by sulforhodamine B assay

[10] = system: Panel melanoma (Carcinoma cell lines); assay: cells; type: functional; conditions: Homo sapiens, time 48 hrs
Description: Growth inhibition of human Panel melanoma (Carcinoma cell lines) incubated for 48 hrs by sulforhodamine B assay

OVCAR-3 = assay: cells; type: functional; conditions: Homo sapiens, time 48 hrs
Description: Growth inhibition of human OVCAR-3 cells incubated for 48 hrs by sulforhodamine B assay

KM12 = assay: cells; type: functional; conditions: Homo sapiens, time 48 hrs
Description: Growth inhibition of human KM12 cells incubated for 48 hrs by sulforhodamine B assay

cells = type: functional; conditions: Homo sapiens, Non-small cell lung cancer cell line; time 48 hrs
Description: Growth inhibition of human Non-small cell lung cancer cell line incubated for 48 hrs by sulforhodamine B assay

NCI-H226 = assay: cells; type: functional; conditions: Homo sapiens, time 48 hrs
Description: Growth inhibition of human NCI-H226 cells incubated for 48 hrs by sulforhodamine B assay

NCI-H460 = assay: cells; type: functional; conditions: Homo sapiens, time 48 hrs
Description: Growth inhibition of human NCI-H460 cells incubated for 48 hrs by sulforhodamine B assay

SK-MEL-28 [11] = assay: Growth inhibition of human SK-MEL-28 cells assessed as growth percentage at 10 uM measured after 48 hrs by sulforhodamine B assay relative to control; type: functional; conditions: read-out: Activity
[12] = Cytotoxicity against human HFF-1 cells assessed as cell growth inhibition at 1 uM by MTT assay relative to control; type: cell-based; conditions: read-out: GI
[13] = Cytotoxicity against human HFF-1 cells assessed as cell growth inhibition by MTT assay; type: cell-based
[14] = Cytotoxicity against human HFF-1 cells assessed as cell growth inhibition at 10 uM by MTT assay relative to control; type: cell-based; conditions: read-out: GI
NCI-H522 = assay: cells; type: functional; conditions: Homo sapiens, time 48 hrs
Description: Growth inhibition of human NCI-H522 cells incubated for 48 hrs by sulforhodamine B assay

UACC-257 = assay: cells; type: functional; conditions: Homo sapiens, time 48 hrs
Description: Growth inhibition of human UACC-257 cells incubated for 48 hrs by sulforhodamine B assay

[15] = Cytotoxicity against human HFF-1 cells assessed as cell growth inhibition at 0.1 uM by MTT assay relative to control; type: cell-based; conditions: read-out: GI
A549 = assay: cells; type: functional; conditions: Homo sapiens, time 48 hrs
Description: Growth inhibition of human A549/ATCC cells incubated for 48 hrs by sulforhodamine B assay

[16] = read-out: LC50 (the source's name)

FC(F)(F)c1cc(Nc2ccc3c(OCCCN4CCOCC4)cccc3n2)ccc1Cl
GI50 [1]: 2.51 µM | GI50 (HCT-116): 2.07 µM | GI50 (SK-MEL-28 [2]): 1.85 µM | GI50 (SR): 2.14 µM | GI50 (MDA-MB-231): 1.82 µM | GI50 (HOP-62): 1.87 µM | GI50 (HCT-15): 1.64 µM | GI50 (RXF 393): 1.78 µM | GI50 (HT-29): 1.74 µM | GI50 (Hs-578T): 2.97 µM | GI50 (MDA-MB-468): 2.17 µM | GI50 (PC-3): 2.26 µM | GI50 [3]: 2.21 µM | GI50 (CCRF-CEM): 1.63 µM | GI50 (HOP-92): 1.24 µM | GI50 (MCF7): 1.66 µM | GI50 (NCI-H23): 2 µM | GI50 (IGROV-1): 3.96 µM | GI50 (SNB-75): 1.89 µM | GI50 (LOX IMVI): 1.73 µM | GI50 (A498): 3.12 µM | GI50 (OVCAR-4): 3.07 µM | GI50 (UACC-62): 2.05 µM | GI50 (SF-295): 1.89 µM | GI50 (OVCAR-8): 4.33 µM | GI50 (U-251): 1.8 µM | GI50 [4]: 1.96 µM | growth at 10 µM (786-0): 37.8% | GI50 [5]: 1.85 µM | GI50 [6]: 3.01 µM | GI50 (K562): 2.14 µM | GI50 (TK-10): 3.49 µM | GI50 [7]: 2.19 µM | GI50 (UO-31): 1.63 µM | GI50 [8]: 2.52 µM | GI50 (NCI-H322M): 2.52 µM | GI50 [9]: 1.93 µM | GI50 [10]: 1.95 µM | GI50 (OVCAR-3): 2.02 µM | GI50 (KM12): 2.07 µM | GI50 (cells): 2.32 µM | GI50 (NCI-H226): 3.54 µM | GI50 (NCI-H460): 2.75 µM

CN1CCN(CCCOc2cccc3nc(Nc4cccc(Cl)c4)ccc23)CC1
GI50 [1]: 1.9 µM | LC50 (lethal concentration 50%) [1]: 17.4 µM | TGI [1]: 5.37 µM | GI50 (HCT-116): 1.55 µM | growth at 10 µM (SK-MEL-28 [11]): 35.5% | GI50 (SK-MEL-28 [2]): 1.65 µM | inhibition at 1 µM [12]: 12.2% | GI50 (SR): 2.2 µM | GI50 [13]: > 10 µM | GI50 (HOP-62): 1.72 µM | GI50 (HCT-15): 1.58 µM | GI50 (RXF 393): 1.85 µM | GI50 (HT-29): 1.5 µM | GI50 (Hs-578T): 1.83 µM | GI50 (MDA-MB-468): 1.61 µM | GI50 (PC-3): 1.81 µM | GI50 [3]: 1.85 µM | TGI [3]: 6.69 µM | CC50 [3, 16]: 20.8 µM | GI50 (CCRF-CEM): 1.68 µM | GI50 (HOP-92): 1.65 µM | GI50 (MCF7): 1.57 µM | GI50 (NCI-H23): 2.27 µM | GI50 (IGROV-1): 2.23 µM | GI50 (SNB-75): 1.38 µM | inhibition at 10 µM [14]: 22.4% | GI50 (NCI-H522): 1.48 µM | GI50 (UACC-257): 1.81 µM | inhibition at 0.1 µM [15]: 5.4% | GI50 (LOX IMVI): 1.68 µM | GI50 (A498): 1.88 µM | GI50 (OVCAR-4): 1.94 µM | GI50 (UACC-62): 1.91 µM | GI50 (SF-295): 1.91 µM | GI50 (OVCAR-8): 1.9 µM | GI50 (U-251): 1.89 µM | GI50 [4]: 1.89 µM | TGI [4]: 4 µM | CC50 [4, 16]: 23.3 µM | GI50 [5]: 1.64 µM | TGI [5]: 3.1 µM | CC50 [5, 16]: 5.87 µM | GI50 [6]: 2.01 µM | LC50 [6]: 11.5 µM | TGI [6]: 4.31 µM | GI50 (K562): 1.79 µM | GI50 (TK-10): 1.67 µM | GI50 [7]: 1.91 µM | TGI [7]: 4.17 µM | CC50 [7, 16]: 10.7 µM | GI50 (UO-31): 1.84 µM | GI50 [8]: 1.9 µM | LC50 (concentration killing 50% of cells) [8]: 7.02 µM | TGI [8]: 3.65 µM | GI50 (NCI-H322M): 2.67 µM | GI50 [9]: 1.99 µM | LC50 (50% lethal concentration) [9]: 38 µM | TGI [9]: 4.65 µM | GI50 (A549): 2.02 µM | GI50 [10]: 1.76 µM | LC50 [10]: 6.45 µM | TGI [10]: 3.37 µM | GI50 (OVCAR-3): 1.45 µM | GI50 (KM12): 1.78 µM | GI50 (cells): 3.73 µM | LC50 (50% lethal concentration) (cells): 23.9 µM | TGI (cells): 8.65 µM | GI50 (NCI-H226): 1.62 µM | GI50 (NCI-H460): 1.87 µM
